# US20240016900A1, “COLLAGEN PEPTIDE-BASED MEDICAMENT COMPOSITIONS AND USES THEREOF” (SUSTAIN HOLDINGS, LLC, priority 2022, published 2024)
# Tests used:
# peripapillary sclera = assay: Fluorescence microscopy of disrupted (RCHP) and intact (Col1) collagen in explants, peripapillary sclera; design: species or system mouse; conditions: MMP1 alone 30 minutes
# Experimental: (§1) To examine the distribution of disrupted and intact collagen in such explants, samples prepared as above were treated with DAPI (to localize cell nuclei), a fluorescently labeled antibody against type I collagen (“Col1”), and a Cy3-labeled collagen hybridizing peptide (“RCHP”) which binds only to areas of disrupted collagen.
# Human type I collagen = Human type I collagen (Homo sapiens, UniProt P02452+P08123); assay: AFM of type I collagen plated on substrates, MMP1 with or without CMP13; assay type: biochemical; conditions: collagen 10 μg/ml; MMP1 alone 60 ng/ml for 30 minutes
# Text: In untreated (baseline) samples, extensive and multilamellar networks of collagen fibers, fibrils and bundles could be readily observed (FIGS. 15A, 15B).
# [1] = tested on: glial lamina at the optic nerve head; assay: AFM measurement of Young's Modulus and morphology in glial lamina of mouse eye explants after MMP1 treatment, with or without CMP; conditions: MMP1 alone, 5 μg/ml for 30 minutes, compared with untreated baseline
# Text: To conduct these studies, mouse eyes were explanted and thin sectioned as described in Example 2 above, and sections of the glial lamina and the peripapillary sclera were examined by atomic force microscopy (AFM).
# To increase the statistical significance of these studies, AFM was used to make Young's Modulus measurements across a large number of points in multiple individual locations in a given sample of glial lamina, as was done in Example 2 for peripapillary sclera.
# glial lamina = assay: Fluorescence microscopy of disrupted (RCHP) and intact (Col1) collagen in explants, glial lamina; design: species or system mouse; conditions: MMP1 alone 30 minutes
# Experimental: as §1
# [2] = tested on: peripapillary sclera in mouse eyes; assay: AFM measurement of Young's Modulus in mouse peripapillary sclera explants after MMP treatment, with or without CMP; conditions: MMP1 alone, 50 μg/ml for 30 minutes, compared with untreated baseline
# Text: Therefore, to examine the possible therapeutic effects of CMPs of the invention in treating myopia, studies were designed to test the effects of certain CMPs conjugates in a model of the in vivo setting—an ex vivo study of the collagen matrix in the peripapillary sclera in mouse eyes. To conduct these studies, mouse eyes were explanted and thin sectioned, and sections of the peripapillary sclera (the scleral area adjacent to the optic nerve head) were examined by atomic force microscopy (AFM).
# To examine the impact of matrix metalloproteinase (MMP) treatment, with or without subsequent CMP treatment, on the stiffness of the mouse peripapillary scleral explants, samples were treated with MMP (50 μg/ml for 30 minutes), followed by either a PBS washout or by treatment with a CMP-containing formulation of the invention for 60 minutes.
# To increase the statistical significance of these studies, AFM was used to make Young's Modulus measurements across a large number of points in multiple individual locations in a given sample of peripapillary sclera.
# [3] = cited from earlier work; for melting temperature of a triple helix: Sakakibara et al. 1973
# Sequence of Human type I collagen (P02452 162-1218 limits assumed): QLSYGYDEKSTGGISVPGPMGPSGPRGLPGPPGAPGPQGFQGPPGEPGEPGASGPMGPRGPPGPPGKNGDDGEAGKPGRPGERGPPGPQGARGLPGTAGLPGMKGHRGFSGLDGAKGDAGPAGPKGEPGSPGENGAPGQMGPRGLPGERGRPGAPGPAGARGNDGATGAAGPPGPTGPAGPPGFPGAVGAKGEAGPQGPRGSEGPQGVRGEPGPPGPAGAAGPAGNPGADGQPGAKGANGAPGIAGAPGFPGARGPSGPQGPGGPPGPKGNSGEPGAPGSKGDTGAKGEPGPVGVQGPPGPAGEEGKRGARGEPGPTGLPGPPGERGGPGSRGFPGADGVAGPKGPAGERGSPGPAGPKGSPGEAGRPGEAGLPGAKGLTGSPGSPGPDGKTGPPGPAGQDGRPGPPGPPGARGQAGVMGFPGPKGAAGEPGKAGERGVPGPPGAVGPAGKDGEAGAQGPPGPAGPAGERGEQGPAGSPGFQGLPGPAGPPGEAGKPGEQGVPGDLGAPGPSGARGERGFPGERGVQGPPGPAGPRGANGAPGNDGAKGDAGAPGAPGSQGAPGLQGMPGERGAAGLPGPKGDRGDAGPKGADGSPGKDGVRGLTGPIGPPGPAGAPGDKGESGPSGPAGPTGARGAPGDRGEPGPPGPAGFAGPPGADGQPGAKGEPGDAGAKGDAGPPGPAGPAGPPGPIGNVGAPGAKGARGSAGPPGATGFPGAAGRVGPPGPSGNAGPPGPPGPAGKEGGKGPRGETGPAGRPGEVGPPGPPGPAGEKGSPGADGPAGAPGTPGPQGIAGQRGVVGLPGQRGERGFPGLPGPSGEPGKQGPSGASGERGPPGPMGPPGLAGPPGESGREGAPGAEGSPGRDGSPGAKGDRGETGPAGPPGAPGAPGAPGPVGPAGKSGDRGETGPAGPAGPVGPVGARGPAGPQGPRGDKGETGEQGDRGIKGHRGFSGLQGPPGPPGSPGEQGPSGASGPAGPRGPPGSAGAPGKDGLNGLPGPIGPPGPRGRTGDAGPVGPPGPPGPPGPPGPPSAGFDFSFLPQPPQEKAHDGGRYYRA
# Sequence of Human type I collagen (P08123 80-1119 limits assumed): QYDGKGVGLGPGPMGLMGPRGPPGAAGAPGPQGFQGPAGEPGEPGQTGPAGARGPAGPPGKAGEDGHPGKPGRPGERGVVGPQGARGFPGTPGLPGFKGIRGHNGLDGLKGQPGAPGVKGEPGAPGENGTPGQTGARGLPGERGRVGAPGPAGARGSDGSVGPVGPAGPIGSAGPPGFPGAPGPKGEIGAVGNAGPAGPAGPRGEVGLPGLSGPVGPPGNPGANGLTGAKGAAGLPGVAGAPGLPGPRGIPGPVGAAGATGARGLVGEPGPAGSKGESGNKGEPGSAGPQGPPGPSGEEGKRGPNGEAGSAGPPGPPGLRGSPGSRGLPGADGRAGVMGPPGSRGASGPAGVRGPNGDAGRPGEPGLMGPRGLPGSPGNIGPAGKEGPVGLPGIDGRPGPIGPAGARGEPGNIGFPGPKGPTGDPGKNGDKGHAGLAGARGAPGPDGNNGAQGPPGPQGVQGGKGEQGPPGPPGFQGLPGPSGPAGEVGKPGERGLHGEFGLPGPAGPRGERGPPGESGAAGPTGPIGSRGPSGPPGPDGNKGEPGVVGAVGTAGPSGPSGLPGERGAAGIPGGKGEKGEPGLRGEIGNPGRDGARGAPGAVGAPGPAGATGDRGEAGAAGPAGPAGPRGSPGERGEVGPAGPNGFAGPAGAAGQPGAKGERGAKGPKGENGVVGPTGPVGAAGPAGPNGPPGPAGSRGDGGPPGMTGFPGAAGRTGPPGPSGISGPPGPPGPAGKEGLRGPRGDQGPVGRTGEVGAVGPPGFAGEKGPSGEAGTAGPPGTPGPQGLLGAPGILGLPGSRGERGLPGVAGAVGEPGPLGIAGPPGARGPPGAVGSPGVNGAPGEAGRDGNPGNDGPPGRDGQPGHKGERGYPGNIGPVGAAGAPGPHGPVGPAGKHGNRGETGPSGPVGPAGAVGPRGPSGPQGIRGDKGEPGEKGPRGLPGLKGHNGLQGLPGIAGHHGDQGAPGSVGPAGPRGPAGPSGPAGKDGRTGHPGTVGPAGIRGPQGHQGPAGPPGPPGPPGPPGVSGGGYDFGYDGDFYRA
Substance,disrupted collagen (RCHP) (peripapillary sclera),collagen fiber/fibril networks on substrate (AFM) (Human type I collagen),Young's Modulus (glial lamina stiffness) [1],Young's Modulus (glial lamina stiffness) ([1]; listed as MMP),disrupted collagen (RCHP) (glial lamina),intact collagen (Col1) (glial lamina),Young's Modulus (scleral stiffness) [2],Young's Modulus (scleral stiffness) ([2]; listed as MMP),melting temperature of a triple helix [3] [°C],"rate at which chains fold into a triple helix ([3]; relative to (ProProGly)10, Chopra and Ananthanarayanan 1982)"
"MMP1: matrix metalloproteinase 1, used to disrupt collagen in explants and on substrates",large amount of disrupted collagen,substantial amount of disorganized collagen and little remaining fiber/fibril formation,significant decrease in Young's Modulus,adversely affecting the stiffness of the glial lamina,large amount of disrupted collagen,nearly devoid of intact collagen,significant decrease in Young's Modulus,significantly reduced the scleral stiffness,–,–
(ProProGly)10,–,–,–,–,–,–,–,–,24,–
(ProHypGly)10,–,–,–,–,–,–,–,–,58,substantially greater
